Test results: US20060281806A1, “Treatment and inhibition of disease conditions using flexible heteroarotinoids” (priority 2005, published 2006)
“Also recorded” adds a separate entry of the source.

Assays:
[1] = system: CC-1 human cervical cell line; assay: In vitro cytotoxicity (SRB growth inhibition) assay, CC-1; assay type: cell-based; set-up: dose or concentration left out as unconfirmed; settings: 72 h
Method: (§1) The SHetA2, SHetA3, SHetA4, SHet50 and 9-cis-RA compounds were evaluated in 4 cervical carcinoma cell lines. The SiHa, CC-1 and C33a human cervical cell lines were maintained in Minimal Essential Media (MEM) containing Earle's salts and L-glutamine supplemented with nonessential amino acids, 1% sodium pyruvate, 10% fetal bovine serum (FBS) and antibiotic/antimycotic. The HT-3 cervical carcinoma cell line was cultured in McCoy's 5a medium supplemented with 10% FBS and antibiotic/antimycotic. Cells were inoculated into 96 well microtiter plates at densities of 1000 cells/well and incubated for 24 h prior to addition of drugs. Drugs were dissolved in dimethyl sulfoxide (DMSO) and diluted in complete medium, prior to addition to triplicate culture wells to achieve final concentrations of […]. Following drug addition, the plates were incubated for 72 h. The assay was terminated by the addition of cold TCA and the cells were stained with 0.4% sulforhodamine B (SRB) in 1% acetic acid. Bound stain was subsequently solubilized with 10 mM trizma base, and the absorbance was read on an automated plate reader at a wavelength of 560 nm. Growth inhibition was determined by dividing the average Optical Density (OD) of the triplicated treated cultures by the average OD of the triplicate control cultures treated with DMSO solvent only. This ratio was converted into a percentage by multiplying by 100. The potency (concentration required to induce half of the maximal activity—GI50) were derived from dose-response graphs generated with results from 3 to 5 individual experiments using GraphPad Software.

[2] = system: dorsal skin of female Skh hairless mice; assay: Topical irritancy; assay type: in vivo; settings: mouse, in vivo
Method: Female Skh hairless mice, 6-8 weeks old, were treated topically on the dorsal skin for 4 days over a 2-log concentration dose range with various compounds. Retinoic acid receptor-Hets were evaluated in A, while retinoic acid receptor-independent Flex-Hets were evaluated in B. Daily flaking and abrasion scores were combined to calculate a single cutaneous toxicity score for each mouse. Each treatment group consisted of 4 mice, and group averages were used to plot cutaneous toxicity against doses of the compounds.
Topical irritancy was evaluated according to published procedures (29). Briefly, female Skh hairless mice, 6-8 weeks old, were treated topically on the dorsal skin for 4 days over a 2-log concentration dose range with various compounds. Daily flaking and abrasion scores were combined to calculate a single cutaneous toxicity score for each mouse. Each treatment group consists of 4 mice, and group averages are used to plot cutaneous toxicity against dose of the retinoid compound.

[3] = system: C33a human cervical cell line; assay: In vitro cytotoxicity (SRB growth inhibition) assay, C33a; assay type: cell-based; set-up: dose or concentration left out as unconfirmed; settings: 72 h
Method: as §1

[4] = system: human polycystic kidney disease cells; assay: 3-D gel culture model of polycystic kidney disease; assay type: cell-based; settings: 4μM, 3 weeks
Method: FIG. 21. Effects of Flex-Hets on formation of cysts in cultured polycystic kidney disease cells. A primary culture of polycystic kidney cells were grown inside a mixture of collagen I and matrigel and treated with prostaglandin E2 to induce cyst formation. Parallel cultures were treated with 10 micromolar SHetA3 and SHetA4.
The 3-D model of the PKD was developed as described here. Single-cell suspensions of the PCKD cell lines was re-suspended in a 4° C. solution mixture containing rat tail collagen I (Collaborative Biomedical Products, Bedford, Mass.), matrigel (Becton Dickinson) and MEM. The suspension was poured into Falcon cell culture inserts with transparent membranes containing 0.4 μm pores (Becton Dickinson, Franklin Lakes, N.J.) and placed at 37° C. Treatment of cultures was initiated after 1 day of growth and replenished with medium once in every two days. Drugs (Flex-Hets at 4 μM Conc.) and hormones (PGE2 at 25 ng/ml) were administered into the medium surrounding the insert. Untreated control cultures were grown in the same conditions as that of the treated cultures. Drug treatment was carried out for 3 weeks before their effects on growth and inhibition were evaluated.

OVCAR-3 xenograft tumors = assay: OVCAR-3 xenograft tumor animal model, tumor growth; assay type: in vivo, mouse; settings: 10 mg/kg/day by gavage, 5 days/week, 4 weeks; t-test on day 29
Method: Groups of 5 mice bearing OVCAR-3 xenografted tumors were gavaged daily with the indicated drugs in sesame oil (▪ closed square) or with sesame oil alone (∘ open circle). Tumor volumes were measured in 3 dimensions with calipers weekly. Each data point represents the average and standard error of the tumor volumes on the indicated treatment day relative to the tumor volume on day zero. Nu/nu mice were injected subcutaneously with one million OVCAR-3 cells and arbitrarily divided into five groups of six mice each. After three weeks of tumor growth, the animals were gavaged with sesame oil, 10 mg/kg/day 4-HPR, or the indicated Het five times per week for four weeks and the tumors were measured once per week. The tumor sizes were averaged and divided by the average size for each group on the day that treatment was initiated (day 0).
The OVCAR-3 cultures were maintained in RPMI media supplemented with 10% fetal bovine serum. All animal experimentation described in this manuscript was conducted in accord with accepted standards of humane animal care. Twenty-five female NU/NU CD-1 female mice (Charles Rivers Laboratories) were housed in a laminar flow room under sterile conditions at 83-85° F. The mice were quarantined for one week prior to the beginning of the study and were allowed access to autoclaved food (Purina 5001 mouse/rat sterilizable diet, St. Louis, Mo.) and water ad libitum. OVCAR-3 cells in log phase growth were harvested by trypsinization, resuspended in RPMI culture medium, and centrifuged at 3,000 rpm for 10 min. The pellets were resuspended in RPMI culture medium at a concentration of 7×10^6 cells/ml before implantation into mice. Animals were injected with 3.5×10^6 cells into the right scapular region with a 24-gauge needle/1 cc tuberculin syringe. Twenty-four hours after tumor implantation, animals were randomized into 5 groups of 5 animals each.
The Hets SHet50, SHetA2 and SHetA4 were synthesized and their receptor specificity determined as previously described (17,19). The 4-HPR compound was a gift from R.W. Johnson Pharmaceutical Research Institute, Raritan, N.J. All retinoids were dissolved in super refined sesame oil (Croda, Inc., Parsippany, N.J.) and stored at −80° C. Since the retinoids are light sensitive, all manipulations involving retinoids were performed under subdued lighting. […] Tumors were measured with calipers weekly, and tumor volumes were calculated using the formula: volume=length×width×height. Tumor growth was determined by the dividing the volume of the tumor at each weekly measurement by the volume on the first day of treatment. Animal weights and clinical signs of overall health status and cutaneous toxicities were recorded weekly.

[5] = system: HT-3 cervical carcinoma cell line; assay: In vitro cytotoxicity (SRB growth inhibition) assay, HT-3; assay type: cell-based, human; set-up: dose or concentration left out as unconfirmed; settings: 72 h
Method: as §1

[6] = system: SiHa human cervical cell line; assay: In vitro cytotoxicity (SRB growth inhibition) assay, SiHa; assay type: cell-based; set-up: dose or concentration left out as unconfirmed; settings: 72 h
Method: as §1

[7] = system: ovarian carcinoma organotypic cultures; assay: Organotypic culture model of ovarian tumors; assay type: cell-based, human; settings: 1 μM retinoid in media; 3, 7 or 14 days
Method: FIG. 17. Retinoid effects on ovarian carcinoma organotypic cultures. Organotypic cultures of OVCAR-3 (A, B, E, F, I and J), Caov-3 (C and G), SK-OV-3 (D and H), and O2 (K and L) were grown in the absence (−, top row and K) or presence (+, middle row and I, J and L) of retinoid HetA4 at a concentration of 1 μM in the media. All sections were stained with H&E except for I, which was stained with PAS to detect glycoproteins and glandular differentiantion, and J, which was stained with the TUNEL assay to detect apoptosis. All magnifications are 40×.
To test our hypotheses, we evaluated the effects of clinically achievable concentrations of 4-HPR and Flex-Hets on growth, differentiation and apoptosis in ovarian tissue. A series of compounds with a variety of receptor activation profiles were evaluated. In order to evaluate therapeutic effects, we developed an organotypic culture model of ovarian tumors by growing established cell lines and primary cultures inside collagen gels. Monolayer cultures of cells are not accurate representations of in vivo tissue because they lack the types of interactions that cells have with other cells and with the extracellular matrix in vivo. These interactions are known to influence gene expression and thus the constitution and behavior of cells. In our organotypic model, the growth of tumor cells inside the collagen allows a representation of tumors that have invaded stromal tissue. In the presence of fibroblasts, established cell lines and primary cultures of ovarian cancer formed colonies inside the collagen, while normal or benign ovarian epithelial cells remained as single cells inside the collagen. Human ovarian cancer cell lines (OVCAR-3, Caov-3, SK-OV-3, A2780, UCI 101) and primary human cultures (borderline ovarian tumor (O1), serous papillary tumor (O2), benign ovarian cyst (O3)) were cultured inside and on top of a collagen gel seeded with 3T3 fibroblasts for one week. After further incubation in the presence or absence of 1 μM retinoid (media concentration) for 3, 7 or 14 days, cultures were fixed and sectioned for immunohistochemical analysis.

[8] = women after breast cancer surgery; 200 mg per day for five years versus placebo; cited from earlier work
[9] = Alanine aminotransferase (ALT) activity in plasma of mice; assay type: in vivo, mouse; settings: end of treatment, 10 mg/kg/day by gavage
Method: At the end of the treatment period, blood was drawn from each animal. Plasma was separated by centrifugation and stored at −70° C. The activity of ALT was determined in aliquots of plasma by standard spectrophotometric enzymatic techniques which are based on the reduction of pyruvate by lactate dehydrogenase (28). The method measures NADH disappearance with time of incubation at 37° C. The activities are expressed as mm/L/min. Two different amounts of plasma were used in each assay to assure measurement of the maximum rate.

a variety of cell lines = settings: cited from earlier work
[10] = biological assays of efficacy; cited from earlier work

| SMILES | Efficacy: percent growth inhibition relative to the untreated control [1] [%] | topical irritancy (cutaneous toxicity score) [2] | Efficacy: percent growth inhibition relative to the untreated control [3] [%] | formation of branched tubular structures (differentiated phenotype) [4] | cyst formation ([4]; PGE2 at 25 ng/ml) | growth of xenograft tumors versus sesame oil control (OVCAR-3 xenograft tumors) | Efficacy: percent growth inhibition relative to the untreated control [5] [%] | Efficacy: percent growth inhibition relative to the untreated control [6] [%] | induction of apoptosis (TUNEL) in organotypic cultures [7] | ovarian cancers developed [8] | ALT Activity [9] [mm/liter/min] | concentration inducing differentiation (receptor-dependent) (a variety of cell lines) [µM] | potency relative to RA [10] [fold] |
| --- | --- | --- | --- | --- | --- | --- | --- | --- | --- | --- | --- | --- | --- |
| CCOC(=O)c1ccc(NC(=O)Nc2ccc3c(c2)C(C)(C)CC(C)(C)S3)cc1 [SHetA4] | 59 | did not induce topical irritancy | 85 | induced the formation of several branched tubular structures | completely eliminated cyst formation | significantly less | 76 | 67 | Apoptosis was induced | – | – | – | – |
| CC1=C(/C=C/C(C)=C/C=C/C(C)=C/C(=O)Nc2ccc(O)cc2)C(C)(C)CCC1 [4-HPR, N-(4-hydroxyphenyl) retinamide] | – | – | – | – | – | significantly inhibited the growth; also recorded: significantly less | – | – | Apoptosis was induced | statistically significantly fewer ovarian cancers | 149.7 ± 140.9 | 1 | – |
| C/C(=C\c1ccc(C(=O)O)cc1)c1ccc2c(c1)C(C)(C)CCC2(C)C [TTNPB] | – | – | – | – | – | – | – | – | – | – | – | – | 10 |
